Measurements taken from the NIST ThermoML archive (doi:10.1021/je060271a).
Numbers after ± are expanded uncertainties.

Conditions: 303.15 K, Liquid, Vibrating tube method

CCCCCC(=O)OCC(COC(=O)CCCCC)(COC(=O)CCCCC)COC(=O)CCCCC [pentaerythritol tetrahexanoate]
Conditions	mass density [kg/m3]
20855 kPa	1001 ± 1.2
20888 kPa	1001.2 ± 1.2
20914 kPa	1001.2 ± 1.2
20942 kPa	1001.1 ± 1.2
20975 kPa	1001.1 ± 1.2
21003 kPa	1001.2 ± 1.2
21057 kPa	1001.1 ± 1.2
21090 kPa	1001.2 ± 1.2
21118 kPa	1001.3 ± 1.2
21151 kPa	1001.3 ± 1.2
21178 kPa	1001.2 ± 1.2
21207 kPa	1001.4 ± 1.2
21241 kPa	1001.3 ± 1.2
21268 kPa	1001.5 ± 1.2
21297 kPa	1001.3 ± 1.2
21331 kPa	1001.4 ± 1.2
21360 kPa	1001.3 ± 1.2
21388 kPa	1001.4 ± 1.2
21422 kPa	1001.4 ± 1.2
21451 kPa	1001.6 ± 1.2
21480 kPa	1001.5 ± 1.2
21514 kPa	1001.5 ± 1.2
21543 kPa	1001.5 ± 1.2
21572 kPa	1001.4 ± 1.2
21607 kPa	1001.6 ± 1.2
21636 kPa	1001.5 ± 1.2
21665 kPa	1001.5 ± 1.2
21701 kPa	1001.5 ± 1.2
21731 kPa	1001.6 ± 1.2
21761 kPa	1001.6 ± 1.2
21796 kPa	1001.7 ± 1.2
21826 kPa	1001.7 ± 1.2
21855 kPa	1001.7 ± 1.2
21885 kPa	1001.6 ± 1.2
21921 kPa	1001.7 ± 1.2
21951 kPa	1001.7 ± 1.2
21981 kPa	1001.8 ± 1.2
22018 kPa	1001.8 ± 1.2
22048 kPa	1001.8 ± 1.2
22079 kPa	1001.8 ± 1.2
22116 kPa	1001.9 ± 1.2
22149 kPa	1001.8 ± 1.2
22180 kPa	1001.9 ± 1.2
22211 kPa	1002 ± 1.2
22242 kPa	1001.8 ± 1.2
22280 kPa	1001.9 ± 1.2
22311 kPa	1002 ± 1.2
22348 kPa	1002 ± 1.2
22379 kPa	1002 ± 1.2
22411 kPa	1002.1 ± 1.2
22442 kPa	1002 ± 1.2
22481 kPa	1002.1 ± 1.2
22513 kPa	1002 ± 1.2
22546 kPa	1002 ± 1.2
22581 kPa	1002.1 ± 1.2
22619 kPa	1002.2 ± 1.2
22651 kPa	1002.1 ± 1.2
22683 kPa	1002.2 ± 1.2
22715 kPa	1002.2 ± 1.2
22754 kPa	1002.2 ± 1.2
22786 kPa	1002.3 ± 1.2
22819 kPa	1002.3 ± 1.2
22858 kPa	1002.4 ± 1.2
22891 kPa	1002.2 ± 1.2
22930 kPa	1002.3 ± 1.2
22964 kPa	1002.4 ± 1.2
22998 kPa	1002.3 ± 1.2
23032 kPa	1002.4 ± 1.2
23072 kPa	1002.4 ± 1.2
23106 kPa	1002.3 ± 1.2
23140 kPa	1002.4 ± 1.2
23181 kPa	1002.4 ± 1.2
23215 kPa	1002.5 ± 1.2
23256 kPa	1002.4 ± 1.2
23291 kPa	1002.4 ± 1.2
23325 kPa	1002.5 ± 1.2
23359 kPa	1002.5 ± 1.2
23398 kPa	1002.5 ± 1.2
24292 kPa	1003 ± 1.2
24323 kPa	1003 ± 1.2
24354 kPa	1003.1 ± 1.2
24390 kPa	1002.9 ± 1.2
24841 kPa	1003.3 ± 1.2
24870 kPa	1003.4 ± 1.2
24905 kPa	1003.4 ± 1.2
24964 kPa	1003.4 ± 1.2
25000 kPa	1003.5 ± 1.2
25312 kPa	1003.6 ± 1.2
25349 kPa	1003.7 ± 1.2
25380 kPa	1003.6 ± 1.2
25410 kPa	1003.8 ± 1.2
25447 kPa	1003.7 ± 1.2
25478 kPa	1003.7 ± 1.2
25518 kPa	1003.7 ± 1.2
25545 kPa	1003.9 ± 1.2
25582 kPa	1003.9 ± 1.2
25614 kPa	1003.7 ± 1.2
25643 kPa	1003.8 ± 1.2
25916 kPa	1003.9 ± 1.2
25947 kPa	1003.9 ± 1.2
25973 kPa	1004.1 ± 1.2
26004 kPa	1004 ± 1.2
26030 kPa	1004.2 ± 1.2
26056 kPa	1004 ± 1.2
26088 kPa	1004.1 ± 1.2
26114 kPa	1004.1 ± 1.2
26140 kPa	1004.1 ± 1.2
26167 kPa	1004.2 ± 1.2
26199 kPa	1004.1 ± 1.2
26225 kPa	1004.2 ± 1.2
26258 kPa	1004.3 ± 1.2
26285 kPa	1004.1 ± 1.2
26312 kPa	1004.2 ± 1.2
26339 kPa	1004.2 ± 1.2
26371 kPa	1004.2 ± 1.2
26399 kPa	1004.2 ± 1.2
26427 kPa	1004.2 ± 1.2
26460 kPa	1004.3 ± 1.2
26488 kPa	1004.3 ± 1.2
26520 kPa	1004.3 ± 1.2
26545 kPa	1004.4 ± 1.2
26569 kPa	1004.3 ± 1.2
26593 kPa	1004.4 ± 1.2
26623 kPa	1004.3 ± 1.2
26648 kPa	1004.2 ± 1.2
26672 kPa	1004.4 ± 1.2
26701 kPa	1004.4 ± 1.2
26726 kPa	1004.3 ± 1.2
26751 kPa	1004.5 ± 1.2
26776 kPa	1004.4 ± 1.2
26806 kPa	1004.4 ± 1.2
26830 kPa	1004.4 ± 1.2
26856 kPa	1004.5 ± 1.2
26885 kPa	1004.5 ± 1.2
26910 kPa	1004.5 ± 1.2
26936 kPa	1004.7 ± 1.2
26966 kPa	1004.6 ± 1.2
26991 kPa	1004.4 ± 1.2
27016 kPa	1004.6 ± 1.2
27041 kPa	1004.7 ± 1.2
27071 kPa	1004.6 ± 1.2
27097 kPa	1004.6 ± 1.2
27127 kPa	1004.5 ± 1.2
27152 kPa	1004.5 ± 1.2
27178 kPa	1004.7 ± 1.2
27208 kPa	1004.8 ± 1.2
27234 kPa	1004.7 ± 1.2
27260 kPa	1004.7 ± 1.2
27291 kPa	1004.6 ± 1.2
27317 kPa	1004.6 ± 1.2
27343 kPa	1004.7 ± 1.2
27369 kPa	1004.9 ± 1.2
27400 kPa	1004.9 ± 1.2
27426 kPa	1004.8 ± 1.2
27458 kPa	1004.7 ± 1.2
27484 kPa	1004.8 ± 1.2
27511 kPa	1004.8 ± 1.2
27537 kPa	1004.8 ± 1.2
27564 kPa	1004.8 ± 1.2
27595 kPa	1004.9 ± 1.2
27621 kPa	1004.9 ± 1.2
27654 kPa	1005 ± 1.2
27682 kPa	1004.9 ± 1.2
27708 kPa	1005 ± 1.2
27734 kPa	1004.9 ± 1.2
27761 kPa	1005 ± 1.2
27793 kPa	1005 ± 1.2
27820 kPa	1005.1 ± 1.2
27852 kPa	1005.1 ± 1.2
27879 kPa	1005.1 ± 1.2
27906 kPa	1005 ± 1.2
27938 kPa	1005 ± 1.2
27965 kPa	1005.2 ± 1.2
27993 kPa	1005.2 ± 1.2
28027 kPa	1005.2 ± 1.2
28056 kPa	1005 ± 1.2
28083 kPa	1005.1 ± 1.2
28110 kPa	1005.1 ± 1.2
28143 kPa	1005.1 ± 1.2
28171 kPa	1005.3 ± 1.2
28199 kPa	1005.3 ± 1.2
28227 kPa	1005.2 ± 1.2
28260 kPa	1005.2 ± 1.2
28288 kPa	1005.2 ± 1.2
28317 kPa	1005.3 ± 1.2
28351 kPa	1005.4 ± 1.2
28379 kPa	1005.3 ± 1.2
28409 kPa	1005.3 ± 1.2
28443 kPa	1005.3 ± 1.2
28471 kPa	1005.3 ± 1.2
28500 kPa	1005.4 ± 1.2
28535 kPa	1005.4 ± 1.2
28564 kPa	1005.4 ± 1.2
28594 kPa	1005.5 ± 1.2
28658 kPa	1005.5 ± 1.2
28687 kPa	1005.5 ± 1.2
28718 kPa	1005.5 ± 1.2
28743 kPa	1005.5 ± 1.2
28769 kPa	1005.6 ± 1.2
28800 kPa	1005.6 ± 1.2
28826 kPa	1005.5 ± 1.2
28851 kPa	1005.6 ± 1.2
28877 kPa	1005.6 ± 1.2
28909 kPa	1005.6 ± 1.2
29460 kPa	1006.1 ± 1.2
29484 kPa	1005.9 ± 1.2
29506 kPa	1005.9 ± 1.2
29534 kPa	1006 ± 1.2
29556 kPa	1006 ± 1.2
29580 kPa	1006 ± 1.2
29607 kPa	1006 ± 1.2
29630 kPa	1006 ± 1.2
29658 kPa	1006.1 ± 1.2
29682 kPa	1006.1 ± 1.2
29705 kPa	1006.1 ± 1.2
29729 kPa	1006 ± 1.2
29756 kPa	1006 ± 1.2
29780 kPa	1006.1 ± 1.2
29804 kPa	1006.2 ± 1.2
29831 kPa	1006.2 ± 1.2
29856 kPa	1006.1 ± 1.2
29879 kPa	1006.1 ± 1.2
29902 kPa	1006.2 ± 1.2
29931 kPa	1006.1 ± 1.2
29954 kPa	1006.1 ± 1.2
29983 kPa	1006.2 ± 1.2
30006 kPa	1006.3 ± 1.2
30030 kPa	1006.3 ± 1.2
30059 kPa	1006.2 ± 1.2
30083 kPa	1006.3 ± 1.2
30108 kPa	1006.3 ± 1.2
30132 kPa	1006.3 ± 1.2
30161 kPa	1006.4 ± 1.2
30185 kPa	1006.4 ± 1.2
30209 kPa	1006.2 ± 1.2
30233 kPa	1006.3 ± 1.2
30262 kPa	1006.3 ± 1.2
30287 kPa	1006.3 ± 1.2
31166 kPa	1006.8 ± 1.2
31197 kPa	1006.8 ± 1.2
31224 kPa	1006.8 ± 1.2
31255 kPa	1006.9 ± 1.2
31283 kPa	1006.9 ± 1.2
31310 kPa	1006.9 ± 1.2
31337 kPa	1006.9 ± 1.2
31370 kPa	1007 ± 1.2
31398 kPa	1007 ± 1.2
31426 kPa	1007 ± 1.2
31459 kPa	1006.9 ± 1.2
31483 kPa	1007.1 ± 1.2
31506 kPa	1007.1 ± 1.2
31534 kPa	1006.9 ± 1.2
31556 kPa	1007.1 ± 1.2
31580 kPa	1007 ± 1.2
31608 kPa	1007.1 ± 1.2
31632 kPa	1007.1 ± 1.2
31656 kPa	1007.2 ± 1.2
31683 kPa	1007.1 ± 1.2
31701 kPa	1007.2 ± 1.2
31719 kPa	1007.1 ± 1.2
31737 kPa	1007.2 ± 1.2
31758 kPa	1007.1 ± 1.2
31777 kPa	1007.2 ± 1.2
31795 kPa	1007.2 ± 1.2
31814 kPa	1007.4 ± 1.2
31835 kPa	1007.2 ± 1.2
31853 kPa	1007.2 ± 1.2
31875 kPa	1007.2 ± 1.2
31893 kPa	1007.3 ± 1.2
31911 kPa	1007.3 ± 1.2
31933 kPa	1007.2 ± 1.2
31951 kPa	1007.3 ± 1.2
31969 kPa	1007.3 ± 1.2
31990 kPa	1007.5 ± 1.2
32009 kPa	1007.4 ± 1.2
32027 kPa	1007.3 ± 1.2
32049 kPa	1007.3 ± 1.2
32068 kPa	1007.3 ± 1.2
32086 kPa	1007.4 ± 1.2
32104 kPa	1007.4 ± 1.2
32127 kPa	1007.5 ± 1.2
32145 kPa	1007.4 ± 1.2
32167 kPa	1007.4 ± 1.2
32186 kPa	1007.4 ± 1.2
32204 kPa	1007.4 ± 1.2
32226 kPa	1007.5 ± 1.2
32244 kPa	1007.4 ± 1.2
32403 kPa	1007.6 ± 1.2
32426 kPa	1007.6 ± 1.2
